In patent US8802597B2, “Herbicidal pyrimidines” (E I du Pont de Nemours and Company, priority 2003, dated 2014):
Like-named read-outs stand apart in the source and are kept apart here.

How the values were obtained:
Assay type in all cases: in vivo
[1] = system: lambsquarters (Chenopodium album); assay: Test B pre/postemergence; details: Chenopodium album; for pest or weed control at 125 g/ha: 125 g ai/ha; for pest or weed control at 500 g/ha: 500 g ai/ha
In short: (§1)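 Under greenhouse conditions, seeded pots and young plants (1- to 4-leaf, 2 to 18 cm) were treated at the same time with test chemicals in a non-phytotoxic solvent mixture containing surfactant. Response was assessed visually after 13 to 15 days, from 0 (no effect) to 100 (complete control).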

[2] = system: cocklebur (Xanthium strumarium); assay: Test B pre/postemergence; details: Xanthium strumarium; for pest or weed control at 125 g/ha: 125 g ai/ha; for pest or weed control at 500 g/ha: 500 g ai/ha
In short: as §1

[3] = system: morningglory (Ipomoea coccinea); assay: Test B pre/postemergence; details: Ipomoea; for pest or weed control at 125 g/ha: 125 g ai/ha; for pest or weed control at 500 g/ha: 500 g ai/ha
In short: as §1

[4] = system: pigweed (Amaranthus retroflexus); assay: Test B pre/postemergence; details: Amaranthus retroflexus; for pest or weed control at 125 g/ha: 125 g ai/ha; for pest or weed control at 500 g/ha: 500 g ai/ha
In short: as §1

[5] = system: Surinam grass (Brachiaria decumbens); assay: Test B pre/postemergence; details: Urochloa decumbens; for pest or weed control at 125 g/ha: 125 g ai/ha; for pest or weed control at 500 g/ha: 500 g ai/ha
In short: as §1

[6] = system: wheat (Triticum aestivum); assay: Test B pre/postemergence; details: Triticum aestivum; for plant injury at 125 g/ha: 125 g ai/ha; for plant injury at 500 g/ha: 500 g ai/ha
In short: as §1

[7] = system: velvetleaf (Abutilon theophrasti); assay: Test B pre/postemergence; details: Abutilon theophrasti; for pest or weed control at 125 g/ha: 125 g ai/ha; for pest or weed control at 500 g/ha: 500 g ai/ha
In short: as §1

corn (Zea mays) = assay: Test B pre/postemergence; details: Zea mays
In short: as §1

[8] = system: giant foxtail (Setaria faberii); assay: Test B pre/postemergence; details: Setaria faberi; for pest or weed control at 125 g/ha: 125 g ai/ha; for pest or weed control at 500 g/ha: 500 g ai/ha
In short: as §1

[9] = system: barnyardgrass (Echinochloa crus-galli); assay: Test B pre/postemergence; details: Echinochloa crus-galli; for pest or weed control at 125 g/ha: 125 g ai/ha; for pest or weed control at 500 g/ha: 500 g ai/ha
In short: as §1

[10] = system: crabgrass (Digitaria sanguinalis); assay: Test B pre/postemergence; details: Digitaria sanguinalis; for pest or weed control at 125 g/ha: 125 g ai/ha; for pest or weed control at 500 g/ha: 500 g ai/ha
In short: as §1

wild oat (Avena fatua) = assay: Test B postemergence; details: Avena fatua, post-emergence
In short: as §1

[11] = system: blackgrass (Alopecurus myosuroides); assay: Test B postemergence; details: Alopecurus myosuroides, post-emergence
In short: as §1

[12] = system: duck salad (Heteranthera limosa); assay: Test B flooded paddy test; details: Heteranthera limosa, Flood, 1000 g ai/ha; scale 0 to 100; read-out: Plant response rating, Ducksalad
In short: (§2)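 Visual injury scoring (0 = no effect, 100 = complete control) versus controls made 13 to 15 days after treatment in the greenhouse. Test species were grown in flooded paddy to the 2-leaf stage: rice, barnyardgrass, umbrella sedge, duck salad.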

rice (Oryza sativa) = assay: Test B flooded paddy test; details: Oryza sativa, Flood, 1000 g ai/ha; scale 0 to 100; read-out: Plant response rating, Rice
In short: as §2

[13] = system: barnyardgrass (Echinochloa crus-galli); assay: Test B flooded paddy test; details: Echinochloa crus-galli, Flood, 1000 g ai/ha; scale 0 (no effect) to 100 (complete control); read-out: Plant response rating, Barnyardgrass
In short: as §2

[14] = system: umbrella sedge (Cyperus difformis); assay: Test B flooded paddy test; details: Cyperus difformis, Flood, 1000 g ai/ha; scale 0 to 100; read-out: Plant response rating, Sedge, Umbrella
In short: as §2

SMILES: COC(=O)c1nc(C2CC2)nc(N)c1F [Compound 25]
- pest or weed control at 125 g/ha ([1]; post-emergence, Postemergence, scale 0 to 100 (0 no effect, 100 complete control), read-out: Lambsquarters plant response rating): 90%
- pest or weed control at 500 g/ha ([1]; post-emergence, Postemergence, scale 0 to 100, read-out: Plant response rating, Lambsquarters): 90%
- pest or weed control at 125 g/ha ([1]; pre-emergence, Preemergence, scale 0 to 100 (0 no effect, 100 complete control), read-out: Plant response rating, Lambsquarters): 90%
- pest or weed control at 500 g/ha ([1]; pre-emergence, Preemergence, scale 0 to 100 (0 no effect, 100 complete control), read-out: Lambsquarters plant response rating): 90%
- pest or weed control at 125 g/ha ([2]; post-emergence, Postemergence, scale 0 to 100 (0 no effect, 100 complete control), read-out: Cocklebur plant response rating): 90%
- pest or weed control at 500 g/ha ([2]; post-emergence, Postemergence, scale 0 to 100, read-out: Plant response rating, Cocklebur): 90%
- pest or weed control at 125 g/ha ([2]; pre-emergence, Preemergence, scale 0 to 100 (0 no effect, 100 complete control), read-out: Plant response rating, Cocklebur): 80%
- pest or weed control at 500 g/ha ([2]; pre-emergence, Preemergence, scale 0 to 100 (0 no effect, 100 complete control), read-out: Cocklebur plant response rating): 90%
- pest or weed control at 125 g/ha ([3]; post-emergence, Postemergence, scale 0 to 100 (0 no effect, 100 complete control), read-out: Morningglory plant response rating): 90%
- pest or weed control at 500 g/ha ([3]; post-emergence, Postemergence, scale 0 to 100, read-out: Plant response rating, Morningglory): 90%
- pest or weed control at 125 g/ha ([3]; pre-emergence, Preemergence, scale 0 to 100 (0 no effect, 100 complete control), read-out: Plant response rating, Morningglory): 80%
- pest or weed control at 500 g/ha ([3]; pre-emergence, Preemergence, scale 0 to 100 (0 no effect, 100 complete control), read-out: Morningglory plant response rating): 90%
- pest or weed control at 125 g/ha ([4]; post-emergence, Postemergence, scale 0 to 100 (0 no effect, 100 complete control), read-out: Pigweed plant response rating): 90%
- pest or weed control at 500 g/ha ([4]; post-emergence, Postemergence, scale 0 to 100, read-out: Plant response rating, Pigweed): 100%
- pest or weed control at 125 g/ha ([4]; pre-emergence, Preemergence, scale 0 to 100 (0 no effect, 100 complete control), read-out: Plant response rating, Pigweed): 80%
- pest or weed control at 500 g/ha ([4]; pre-emergence, Preemergence, scale 0 to 100 (0 no effect, 100 complete control), read-out: Pigweed plant response rating): 90%
- pest or weed control at 125 g/ha ([5]; post-emergence, Postemergence, scale 0 to 100 (0 no effect, 100 complete control), read-out: Surinam Grass plant response rating): 50%
- pest or weed control at 500 g/ha ([5]; post-emergence, Postemergence, scale 0 to 100, read-out: Plant response rating, Surinam Grass): 70%
- pest or weed control at 125 g/ha ([5]; pre-emergence, Preemergence, scale 0 to 100 (0 no effect, 100 complete control), read-out: Plant response rating, Surinam Grass): 20%
- pest or weed control at 500 g/ha ([5]; pre-emergence, Preemergence, scale 0 to 100 (0 no effect, 100 complete control), read-out: Surinam Grass plant response rating): 70%
- plant injury at 125 g/ha ([6]; post-emergence, Postemergence, scale 0 to 100 (0 no effect, 100 complete control), read-out: Wheat plant response rating): 20%
- plant injury at 500 g/ha ([6]; post-emergence, Postemergence, scale 0 to 100, read-out: Plant response rating, Wheat): 30%
- plant injury at 125 g/ha ([6]; pre-emergence, Preemergence, scale 0 to 100 (0 no effect, 100 complete control), read-out: Plant response rating, Wheat): 50%
- plant injury at 500 g/ha ([6]; pre-emergence, Preemergence, scale 0 to 100 (0 no effect, 100 complete control), read-out: Wheat plant response rating): 60%
- pest or weed control at 125 g/ha ([7]; post-emergence, Postemergence, scale 0 to 100 (0 no effect, 100 complete control), read-out: Velvetleaf plant response rating): 60%
- pest or weed control at 500 g/ha ([7]; post-emergence, Postemergence, scale 0 to 100, read-out: Plant response rating, Velvetleaf): 70%
- pest or weed control at 125 g/ha ([7]; pre-emergence, Preemergence, scale 0 to 100 (0 no effect, 100 complete control), read-out: Plant response rating, Velvetleaf): 70%
- pest or weed control at 500 g/ha ([7]; pre-emergence, Preemergence, scale 0 to 100 (0 no effect, 100 complete control), read-out: Velvetleaf plant response rating): 80%
- plant injury at 125 g/ha (corn (Zea mays); post-emergence, Postemergence, 125 g ai/ha, scale 0 to 100 (0 no effect, 100 complete control), read-out: Corn plant response rating): 0%
- Corn plant response rating (crop injury, 0 = no effect, 100 = complete kill) at 500 g/ha (corn (Zea mays); post-emergence, Postemergence, 500 g ai/ha, scale 0 to 100): 30%
- Corn plant response rating (crop injury, 0 = no effect, 100 = complete kill) at 125 g/ha (corn (Zea mays); pre-emergence, Preemergence, 125 g ai/ha, scale 0 to 100 (0 no effect, 100 complete control)): 0%
- plant injury at 500 g/ha (corn (Zea mays); pre-emergence, Preemergence, 500 g ai/ha, scale 0 to 100 (0 no effect, 100 complete control), read-out: Corn plant response rating): 0%
- pest or weed control at 125 g/ha ([8]; post-emergence, Postemergence, scale 0 to 100 (0 no effect, 100 complete control), read-out: Foxtail, Giant plant response rating): 50%
- pest or weed control at 500 g/ha ([8]; post-emergence, Postemergence, scale 0 to 100, read-out: Plant response rating, Foxtail, Giant): 80%
- pest or weed control at 125 g/ha ([8]; pre-emergence, Preemergence, scale 0 to 100 (0 no effect, 100 complete control), read-out: Plant response rating, Foxtail, Giant): 40%
- pest or weed control at 500 g/ha ([8]; pre-emergence, Preemergence, scale 0 to 100 (0 no effect, 100 complete control), read-out: Foxtail, Giant plant response rating): 80%
- pest or weed control at 125 g/ha ([9]; post-emergence, Postemergence, scale 0 to 100 (0 no effect, 100 complete control), read-out: Barnyardgrass plant response rating): 40%
- pest or weed control at 500 g/ha ([9]; post-emergence, Postemergence, scale 0 to 100, read-out: Plant response rating, Barnyardgrass): 80%
- pest or weed control at 125 g/ha ([9]; pre-emergence, Preemergence, scale 0 to 100 (0 no effect, 100 complete control), read-out: Plant response rating, Barnyardgrass): 20%
- pest or weed control at 500 g/ha ([9]; pre-emergence, Preemergence, scale 0 to 100 (0 no effect, 100 complete control), read-out: Barnyardgrass plant response rating): 60%
- pest or weed control at 125 g/ha ([10]; post-emergence, Postemergence, scale 0 to 100 (0 no effect, 100 complete control), read-out: Crabgrass plant response rating): 60%
- pest or weed control at 500 g/ha ([10]; post-emergence, Postemergence, scale 0 to 100, read-out: Plant response rating, Crabgrass): 80%
- pest or weed control at 125 g/ha ([10]; pre-emergence, Preemergence, scale 0 to 100 (0 no effect, 100 complete control), read-out: Plant response rating, Crabgrass): 60%
- pest or weed control at 500 g/ha ([10]; pre-emergence, Preemergence, scale 0 to 100 (0 no effect, 100 complete control), read-out: Crabgrass plant response rating): 70%
- pest or weed control at 125 g/ha (wild oat (Avena fatua); 125 g ai/ha, scale 0 to 100 (0 no effect, 100 complete control), read-out: Oat, Wild plant response rating): 10%
- pest or weed control at 500 g/ha (wild oat (Avena fatua); 500 g ai/ha, scale 0 to 100, read-out: Plant response rating, Oat, Wild): 20%
- pest or weed control at 125 g/ha ([11]; 125 g ai/ha, scale 0 to 100 (0 no effect, 100 complete control), read-out: Blackgrass plant response rating): 10%
- pest or weed control at 500 g/ha ([11]; 500 g ai/ha, scale 0 to 100, read-out: Plant response rating, Blackgrass): 60%
- pest or weed control at 1000 g/ha [12]: 40%
- plant injury at 1000 g/ha (rice (Oryza sativa)): 30%
- pest or weed control at 1000 g/ha [13]: 30%
- pest or weed control at 1000 g/ha [14]: 40%
